From PMC9431032, “Boosting Cosmeceutical Peptides: Coupling Imidazolium-Based Ionic Liquids to Pentapeptide-4 Originates New Leads with Antimicrobial and Collagenesis-Inducing Activities” (Microbiology Spectrum, 2022) come the findings set out here.

Each structure is given as a SMILES string. Where “and” joins values, the source holds several entries; their conditions need not be identical. Identical values can stand only once. Like-named read-outs stand apart in the source and are kept apart here. Peptide text beside a SMILES is read from it. * marks the point of attachment. X1 = CCCCCCCCCCCCCCCCn1cc[n+](Cc2cn(CC(=O)*)nn2)c1

Experiment [1] has as its system HFF-1 cells (human foreskin fibroblasts). In kind it is cell-based. The conditions noted are these: 24 h. The protocol:
(§1) The cytotoxicity of KTTK(C16Im)S and C16Im-KTTKS conjugates was assessed on human foreskin fibroblasts (HFF-1) and human immortalized keratinocytes (HaCaT). […] In turn, the parent IL [C16 M1Im][Br] and its […] equimolar mixture with PP4, KTTKS:[C16 M1Im][Br]
(§2) (iv) Toxicity to human cells. HaCat and HFF-1 were seeded at 4 × 10^4cell/mL in 96-well plate using in Dulbecco’s Modified Eagle Medium (DMEM; CLS) supplemented with 2% FBS (Biowest) and 1% of antibiotic/antimycotic solution (100 units/mL of penicillin, 10 mg/mL of streptomycin, and 0.25 mg/mL of amphotericin B, Sigma-Aldrich). The plate was incubated at 37°C in a 5% CO2 atmosphere, and the cells allowed to grow until confluence was reached. Then, solutions of the test compounds in DMEM supplemented with 2% FBS, in a concentration range between 6.3 and 100 μM, were added to the wells. After 24 h of incubation at 37°C in a 5% CO2 atmosphere, the cell viability was assessed through the resazurin reduction assay. Briefly, the medium was removed and then 20 μL of the alamarBlue Cell Viability Reagent (Resazurin sodium salt, Sigma-Aldrich) at 0.15 mg/mL in 100 μL of Hank’s Balanced Salt Solution (HBSS; Sigma-Aldrich) were added to each well; the plate was next incubated for 2 h at 37°C in a 5% CO2 atmosphere, after which fluorescence was read at 560/590 nm on a Flex Station 3 multi-mode microplate reader (Molecular Devices) ([53]). The IC50 values were thus determined using the GraphPad Prism 9.0 software, by applying the equation log(inhibitor) versus response with variable slope (four parameters).

Experiment [2] deals with P. aeruginosa (PA004) MDR clinical isolate. The conditions noted are these: n = 3.
In experiment [3] the test system is S. aureus (SA007) MDR clinical isolate. The conditions noted are these: for MIC: n = 3.
Another experiment concerns C. albicans ATCC 90028. In words: microbe, parasite or virus in culture. The conditions noted are these: C. albicans ATCC 90028, RPMI 1640 with 2% glucose, EUCAST, n = 2. The method, then:
(§3) The MIC values were determined according to the European Committee on Antimicrobial Susceptibility Testing (EUCAST) protocol ([36]) and are shown on Table 4.
(§4) (iii) Antifungal activity.

Experiment [4] deals with C. parapsilosis ATCC 22019. Kind of experiment: microbe, parasite or virus in culture. The settings on record: C. parapsilosis ATCC 22019, RPMI 1640 with 2% glucose, EUCAST, n = 2. The method, then: as §3, §4
A further experiment concerns C. glabrata ATCC 90030. Kind of experiment: microbe, parasite or virus in culture. The conditions noted are these: C. glabrata ATCC 90030, RPMI 1640 with 2% glucose, EUCAST, n = 2. The method, then:
as §3, §4

Experiment [5] deals with HaCaT cells (human immortalized keratinocytes). Kind of experiment: cells. In kind it is cell-based. The conditions noted are these: 24 h. The protocol: as §1, §2
The next experiment concerns S. aureus (ATCC 29213). The settings on record: for MBC: ATCC 29213, 24 h; for MIC: 10^5 CFU/mL, 18 h at 37°C, three independent experiments in triplicates. The protocol:
The antibacterial activity of C16Im-KTTKS and KTTK(C16Im)S was also assessed in simulated wound fluid (SWF) ([35]) against S. aureus (ATCC 29213), to check if it was preserved in this medium.
(ii) Antibacterial activity in simulated wound fluid. […] In parallel, SWF was prepared to a final composition of 50% fetal bovine serum (FBS; Sigma-Aldrich) and 50% peptone water (0.9% NaCl in 0.1% aqueous peptone; Sigma-Aldrich) ([35]). […] MIC values were determined in triplicates and are a result of three independent experiments.

In experiment [6] the test system is S. epidermidis ATCC 14990. The conditions noted are these: broth microdilution in cation-adjusted MHB2, CLSI, n = 3. The protocol: (§5) The antimicrobial activity of the IL-KTTKS conjugates was assessed in vitro against reference bacterial strains (American Type Culture Collection, ATCC). The minimal inhibitory concentration (MIC) was determined according to the Clinical and Laboratory Standards Institute (CLSI) guidelines ([28]) against Gram-positive (S. aureus, Enterococcus faecalis) and Gram-negative (Escherichia coli, Pseudomonas aeruginosa) bacteria.
(§6) (i) Antibacterial activity in standard conditions. The test conjugates and reference compounds were evaluated for their activity against three reference strains of Gram-negative bacteria, namely, E. coli (ATCC 25922), Pseudomonas aeruginosa (ATCC 27853), and Klebsiella pneumoniae (ATCC 13883), and the four following reference strains of Gram-positive bacteria, Staphylococcus aureus (ATCC 29213), S. Epidermidis (ATCC 14990), E. faecalis (ATCC 29212), and Streptococcus pyogenes (ATCC 19615). […] MBC values were also determined as previously reported ([52]).
A general note: Broth dilution looks for growth in wells or tubes with falling amounts of substance.

Experiment [7] deals with K. pneumoniae (KP010) MDR clinical isolate. The settings on record: n = 3.
The subject of the next experiment is S. aureus ATCC 29213. In words: microbe, parasite or virus in culture. The settings on record: S. aureus ATCC 29213; broth microdilution in cation-adjusted MHB2, CLSI; n = 3. The protocol: as §5, §6
Another experiment relates to E. faecalis ATCC 29212. In words: microbe, parasite or virus in culture. The conditions noted are these: E. faecalis ATCC 29212; broth microdilution in cation-adjusted MHB2, CLSI; n = 3. The method, then:
as §5, §6

For another experiment, the system named is P. aeruginosa ATCC 27853. Kind of experiment: microbe, parasite or virus in culture. The settings on record: P. aeruginosa ATCC 27853; broth microdilution in cation-adjusted MHB2, CLSI; n = 3. The protocol:
as §5, §6

In another experiment the test system is K. pneumonia ATCC 138830. In words: microbe, parasite or virus in culture. The conditions noted are these: K. pneumonia ATCC 138830; broth microdilution in cation-adjusted MHB2, CLSI; n = 3. The method, then:
as §5, §6

The next experiment has as its system E. coli ATCC 25922. In words: microbe, parasite or virus in culture. The conditions noted are these: E. coli ATCC 25922; broth microdilution in cation-adjusted MHB2, CLSI; n = 3. The protocol: as §5, §6
Experiment [8] has as its system human dermal fibroblasts (HDF). Kind of experiment: Collagen production, Sircol kit assay. The settings on record: 5 μM, 48 h, three independent experiments in triplicates, values only in Fig. 3. In kind it is cell-based. The protocol: The point of conjugating antimicrobial ILs to a collagenesis-inducing peptide was to afford a simple construct able to exert a dual antimicrobial and skin rebuilding action. Therefore, the two best IL-KTTKS conjugates were further tested for their ability to promote collagen production by human dermal fibroblasts (HDF) in vitro. This was assessed using the Sircol kit assay, whereby the amount of newly formed collagen in the ECM that is deposited in the microwell-plated cell cultures is solubilized in an acidic medium and next quantified through a collagen standard curve according to the Sircol kit assay procedure ([38]). […]
(v) Collagen production in human dermal fibroblasts. The amount of collagen produced by HDF was determined using the SIRCOL Kit Assay (Biocolor) according to the manufacturers’ instructions ([38]). […] Medium was then removed, and quantitation of the newly formed collagen proceeded as follows: collagen was solubilized in cold 0.5 M aqueous acetic acid (Fisher Chemical) and concentrated overnight with deposition of a transparent pellet; after centrifugation, the supernatant was discarded and the pellet was labeled with the SIRCOL dye reagent; after removing the unbound dye with the acid-salt wash reagent, the collagen-bound dye was dissolved with the alkali reagent and absorbance was measured at 555 nm on Flex Station 3 multimode microplate reader. […]

Where [9] appears, read: in SWF (50% FBS, 50% peptone water).

One may read the IC50 as the concentration at which inhibition is half-maximal. The low end stands for higher potency, the high end for lower potency.

On to `CCCCCCCCCCCCCCCCn1cc[n+](Cc2cn(CCCC[C@H](NC(=O)[C@@H](NC(=O)[C@@H](NC(=O)[C@@H](N)CCCCN)[C@@H](C)O)[C@@H](C)O)C(=O)N[C@@H](CO)C(N)=O)nn2)c1` [KTTK(C16Im)S], for which the IC50 in [1] stood at 12.7 ± 1.06 µM; in experiment [5] it was 23.1 ± 1.1 µM. The MIC was 21.7 μM and 20.0 μg/mL in experiment [2]; 21.7 μM and 20.0 μg/mL in experiment [3]; 5.4 μM and 5.0 μg/mL in the experiment with C. albicans ATCC 90028 (listed as KTTK(C16m)S); 2.7 μM and 2.5 μg/mL in experiment [4] (listed as KTTK(C16m)S); 5.4 μM and 5.0 μg/mL with C. glabrata ATCC 90030 (listed as KTTK(C16m)S); 32 µg/mL in the experiment with S. aureus (ATCC 29213) (in MHB). Besides, the MIC against S. aureus (ATCC 29213) (setting [9]) was 64 to 128 µg/mL; in [6], 5.4 μM and 5.0 μg/mL; in experiment [7], 21.7 μM and 20.0 μg/mL; in the experiment on S. aureus ATCC 29213 it was 14.0 μM and 12.9 μg/mL; in the experiment with E. faecalis ATCC 29212, 32.5 μM and 29.9 μg/mL; in the experiment on P. aeruginosa ATCC 27853 it was 32.5 μM and 29.9 μg/mL. Further, the MIC was 53.8 μM and 49.5 μg/mL in the experiment with K. pneumonia ATCC 138830; 7.0 μM and 6.45 μg/mL against E. coli ATCC 25922. Also, in the experiment on S. aureus (ATCC 29213), the MBC was 32 [64 to 128] μg/mL. In experiment [8], the “Collagen synthesis by HDF compared to the negative control” value is recorded as “produce more collagen”.

With `CCCCCCCCCCCCCCCCn1cc[n+](Cc2cn(CC(=O)N[C@@H](CCCCN)C(=O)N[C@H](C(=O)N[C@H](C(=O)N[C@@H](CCCCN)C(=O)N[C@@H](CO)C(N)=O)[C@@H](C)O)[C@@H](C)O)nn2)c1` [Peptide C16Im-KTTKS] (X1-KTTKS-NH2), the 50% inhibitory concentration (IC50) in experiment [1] was determined as 22.5 ± 1.08 µM; in [5], 36.6 ± 1.09 µM. Further, the MIC in experiment [2] was 18.5 µg/mL; in experiment [3] it was 18.5 µg/mL; with C. albicans ATCC 90028 it was 4.7 μM and 4.6 μg/mL; in experiment [4] it was 2.4 μM and 2.3 μg/mL; against C. glabrata ATCC 90030 it was 4.7 μM and 4.6 μg/mL; against S. aureus (ATCC 29213) (in MHB), 16 to 32 µg/mL. For the same compound, the MIC with S. aureus (ATCC 29213) (setting [9]) was 16 to 32 µg/mL; in experiment [6], 9.5 μM and 9.3 μg/mL; in experiment [7], 37.9 μM and 37.0 μg/mL; against S. aureus ATCC 29213, 14.3 μM and 14.0 μg/mL; in the experiment on E. faecalis ATCC 29212, 28.7 μM and 28.0 μg/mL; against P. aeruginosa ATCC 27853, 28.7 μM and 28.0 μg/mL. The MIC with K. pneumonia ATCC 138830 was 27.4 μM and 26.8 μg/mL; in the experiment with E. coli ATCC 25922 it was 14.3 μM and 14.0 μg/mL. For the same compound, the “MIC relative to that of ciprofloxacin” value in experiment [3] is listed as approximately 10 fold. This compound came in with an MBC in the experiment on S. aureus (ATCC 29213) of 32 to 64 µg/mL. Further, the “Collagen synthesis by HDF compared to the negative control” value in experiment [8] is given as “produce more collagen”.
